Reference: US20230332232A1, “COMPOSITIONS AND METHODS FOR DIAGNOSING AND TREATING A DYSTONIA” (Duke University, priority 2020, published 2023)

System: wild-type (WT) murine embryonic fibroblasts (MEFs)
Experiment: Untargeted LC/MS/MS proteomics of EVs from WT MEFs exposed 24 hours to drug, compared with untreated WT MEFs
Assay type: cell-based, mouse
Details: for direction of modulated EV protein expression: WT cells
Method: Methods for isolation and purification of exosomes and extracellular vesicles (EV) were extensively reviewed. Experiments were performed to arrive at a robust and reproducible protocol. The protocol used herein is that set forth in Théry et al, 2006, which is incorporated by reference for it teaching of this protocol. This protocol involves depleting serum-derived EVs from cell culture media by overnight ultracentrifugation and exchanging media for 1% FBS EV-depleted media. Media is then collected from cells following a 24-hour conditioning period and EVs are isolated by 18-hour ultracentrifugation at 100,000 g (FIG. 1A).
EVs were isolated from media of cultured murine embryonic fibroblasts (MEFs) prepared in-house according to protocols described by Xu 2005 from DYT1 knockin mice (Tor1a^delGAG/+) (Goodchild R E, et al. (2005) Neuron. 48:923-932) and littermate wild-type (WT) controls. The cultured MEFs from the DYT1 mice were exposed for 24 hours to Ritonavir (RTV) while the MEFs from WT mice were exposed to vehicle, ISRIB, or Salubrinal (SAL). The EVs isolated from these WT cells and DYT1 were characterized by untargeted proteomics and RNA-seq to identify differentially expressed proteins and RNAs as candidate biomarkers. Experimenter and Proteomics core staff were blinded to genotype of cell cultures throughout preparation and analysis phases. EV isolation was confirmed by Western immunoblot documenting presence of the exosomal marker (TSG101) and absence of the endoplasmic reticulum (ER) marker (CANX) (FIG. 1B (Cohort 1) and FIG. 1C (Cohort 2)).
Following the bicinchoninic acid assay (BCA) analysis and Western immunoblot of a portion of samples for QC, 11.6 μg-129.2 μg of EV protein lysates in RIPA buffer were sent to the Duke Proteomics and Metabolomics Shared Resource core facility for LC/MS/MS quantitative proteomic analysis. Samples were first normalized to 20 μg and spiked with undigested casein at a total of 40 fmol/μg, 80 fmol/μg, or 160 fmol/μg, then reduced with 10 mM dithiolthreitol for 30 minute at 80° C. and alkylated with 20 mM iodoacetamide for 30 minutes at room temperature. Next, the samples were supplemented with a final concentration of 1.2% phosphoric acid and 741 μL of S-Trap (Protifi) binding buffer (90% MeOH/100 mM […]). Proteins were trapped on the S-Trap, digested using 20 ng/μL sequencing grade trypsin (Promega) for 1 hour at 47° C., and eluted using 50 mM TEAB, followed by 0.2% FA, and lastly using 50% CAN/0.2% FA. All samples were then lyophilized to dryness and resuspended in 40 μL 1% TFA/2% acetonitrile containing 12.5 fmol/μL yeast alcohol dehydrogenase (ADH_YEAST). A QC Pool was created from 3 uL of each sample. All QC Pools were run periodically throughout the acquisition period.
Quantitative LC/MS/MS was performed on 2 μL of each sample, using a nanoAcquity UPLC system (Waters Corp) coupled to a Thermo Orbitrap Fusion Lumos high resolution accurate mass tandem mass spectrometer (Thermo) via a nanoelectrospray ionization source. Briefly, the sample was first trapped on a Symmetry C18 20 mm×180 μm trapping column (5 μL/min at 99.9/0.1 v/v water/acetonitrile), after which the analytical separation was performed using a 1.8 μm Acquity HSS T3 C18 75 μm×250 mm column (Waters Corp.) with a 90 minute linear gradient of 5% to 30% acetonitrile with 0.1% formic acid at a flow rate of 400 nanoliters/minute (nL/min) with a column temperature of 55° C. Data collection on the Fusion Lumos mass spectrometer was performed in a data-dependent acquisition (DDA) mode of acquisition with a r=120,000 (@ m/z 200) full MS scan from m/z 375-1500 with a target AGC value of 2e5 ions. MS/MS scans were acquired at Rapid scan rate (Ion Trap) with an AGC target of 5e3 ions and a max injection time of 100 ms. The total cycle time for MS and MS/MS scans was 2 seconds. A 20 second dynamic exclusion was employed to increase depth of coverage. The total analysis cycle time for each sample injection was approximately 2 hours. […]

[1] = EV protein Prep, Prolyl endopeptidase
[2] = EV protein Protein transport protein Sec31A
[3] = EV protein Q8BPB5, EGF-containing fibulin-like ECM protein 1
[4] = EV protein Q8C878, NEDD8-activating enzyme E1 catalytic subunit
[5] = EV protein Q8R081, Heterogeneous nuclear ribonucleoprotein 1
[6] = EV protein Q9D1M4, Eukaryotic translation EF1 epsilon-1
[7] = EV protein Q62261, Spectrin beta chain, non-crythrocytic 1
[8] = EV protein Q89051, Integral membrane protein 2B
[9] = EV protein Regulator of nonsense transcripts 1

## O=C(COc1ccc(Cl)cc1)NC1CCC(NC(=O)COc2ccc(Cl)cc2)CC1 (stereo not drawn) [ISRIB]
EV protein P27612, Phospholipase A-2-activating protein
  ISRIBvWT Z Score: −2.39
EV protein P48678, Prelamin-
  ISRIB Direction Same as dE?: yes
  ISRIBvWT Z Score: −0.19
EV protein P61089, Ubiquitin-conjugating enzyme
  ISRIBvWT Z Score: 0.41
EV protein Pdia4 (P08003)
  ISRIBvWT Z Score: 1.37
EV protein Penk (P22005)
  ISRIBvWT Z Score: −0.11
EV protein Plaa P27612
  ISRIBvWT Z Score: −2.39
EV protein Pld3 (Q35405)
  ISRIBvWT Z Score: 1.18
[1]
  ISRIB Direction Same as dE?: yes
  ISRIBvWT Z Score: −1.11
[2]
  ISRIB Direction Same as dE?: yes
  ISRIBvWT Z Score: −1.34
EV protein Prpf8 (Q99PV0)
  ISRIB Direction Same as dE?: yes
  ISRIBvWT Z Score: −0.01
EV protein Psmd1 (Q3TXS7)
  ISRIB Direction Same as dE?: yes
  ISRIBvWT Z Score: −0.65
EV protein Pura (P42669)
  ISRIBvWT Z Score: 0.52
EV protein Q6X893, Choline transporter-like protein 1
  ISRIBvWT Z Score: 0.80
EV protein Q8BL97, Serine arginine-rich splicing factor 7
  ISRIBvWT Z Score: 0.13
[3]
  ISRIB Direction Same as dE?: yes
  ISRIBvWT Z Score: 0.07
[4]
  ISRIB Direction Same as dE?: yes
  ISRIBvWT Z Score: −1.68
EV protein Q8C878 NEDD8-activating enzyme .. subunit
  ISRIBvWT Z Score: −1.68
[5]
  ISRIB Direction Same as dE?: yes
  ISRIBvWT Z Score: −0.32
[6]
  ISRIB Direction Same as dE?: yes
  ISRIBvWT Z Score: −3.65
EV protein Q9FS30, Complement C1q tumor necrosis factor-related protein 3
  ISRIBvWT Z Score: −0.18
EV protein Q9Z1Z0, General vesicular transport factor p115
  ISRIBvWT Z Score: 2.44
EV protein Q9Z2X1 Heterogeneous nuclear ribonucleoprotein E
  ISRIBvWT Z Score: −0.18
EV protein Q78ZA7, Nucelosome assembly protein 1-like 4
  ISRIBvWT Z Score: 2.43
EV protein Q99KJ8 Dynactin subunit 2
  ISRIBvWT Z Score: 0.53
EV protein Q922B2 Aspartate--tRNA ligase
  ISRIBvWT Z Score: −1.13
EV protein Q01405 Protein transport protein .. 23A
  ISRIBvWT Z Score: −0.95
EV protein Q60751, Insulin-like growth factor 1 receptor
  ISRIBvWT Z Score: 0.75
[7]
  ISRIB Direction Same as dE?: yes
  ISRIBvWT Z Score: −0.82
[8]
  ISRIB Direction Same as dE?: yes
  ISRIBvWT Z Score: −2.13
EV protein Qars (Q8BML9)
  ISRIB Direction Same as dE?: yes
  ISRIBvWT Z Score: −2.14
EV protein Rab6a (P35279)
  ISRIBvWT Z Score: 0.44
EV protein Rbbp4 (Q60972)
  ISRIB Direction Same as dE?: yes
  ISRIBvWT Z Score: −1.73
[9]
  ISRIB Direction Same as dE?: yes
  ISRIBvWT Z Score: −1.84
EV protein Rpl22 (P67984)
  ISRIBvWT Z Score: 2.38
EV protein S100a11 (P50543)
  ISRIBvWT Z Score: 0.33
EV protein Scarb2 (Q35114)
  ISRIBvWT Z Score: 0.09
EV protein Sec23a (Q01405)
  ISRIB Direction Same as dE?: yes
  ISRIBvWT Z Score: −0.95
EV protein Shmt2 (Q9CZN7)
  ISRIB Direction Same as dE?: yes
  ISRIBvWT Z Score: −1.44
EV protein Shrnt2 Q9CZN7
  ISRIBvWT Z Score: −1.44
EV protein Spp1 (P10923)
  ISRIB Direction Same as dE?: yes
  ISRIBvWT Z Score: 2.67
EV protein Sptan1 (P16546)
  ISRIB Direction Same as dE?: yes
  ISRIBvWT Z Score: −0.40
EV protein Ssb (P32067)
  ISRIBvWT Z Score: 0.41
EV protein Ssbp1 (Q9CYR0)
  ISRIB Direction Same as dE?: yes
  ISRIBvWT Z Score: −1.49
EV protein Svep1 (A2A0A0)
  ISRIBvWT Z Score: −0.50
EV protein Tars (Q9D0R2)
  ISRIB Direction Same as dE?: yes
  ISRIBvWT Z Score: −1.16
EV protein Tra2b (P62996)
  ISRIBvWT Z Score: 0.54
EV protein Vapa (Q9WV55)
  ISRIBvWT Z Score: 3.18
RTV Therapeutic Efficacy with ISRIB Insensitivity subset, 33 proteins
  direction of modulated EV protein expression: in the opposite direction of DYT1 genotype-dependent direction
RTV Therapeutic Efficacy with ISRIB Sensitivity subset, 121 proteins
  direction of modulated EV protein expression: modulated expression in a predicted pathological direction
